According to ChEMBL document CHEMBL4229332, “Novel multi-target azinesulfonamides of cyclic amine derivatives as potential antipsychotics with pro-social and pro-cognitive effects” (Eur J Med Chem, 2018):
Activity calls are given as the source filed them. The rule behind the calls is not given here.

Assays:
[1] = target: 5-hydroxytryptamine receptor 2A (Homo sapiens, UniProt P28223); assay: biochemical; format: cell-based, CHO-K1
[2] = Drug level in Wistar rat plasma at 3 mg/kg, ip measured after 15 mins by LC-MS/MS analysis; format: ADME, organism-based
[3] = Drug level in Wistar rat plasma at 3 mg/kg, ip measured after 30 mins by LC-MS/MS analysis; format: ADME, organism-based
[4] = Drug level in Wistar rat plasma at 3 mg/kg, ip measured after 60 mins by LC-MS/MS analysis; format: ADME, organism-based
[5] = Drug level in Wistar rat brain at 3 mg/kg, ip measured after 15 mins by LC-MS/MS analysis; format: ADME, organism-based; conditions: read-out: Drug uptake
[6] = Drug level in Wistar rat brain at 3 mg/kg, ip measured after 30 mins by LC-MS/MS analysis; format: ADME, organism-based; conditions: read-out: Drug uptake
[7] = Drug level in Wistar rat brain at 3 mg/kg, ip measured after 60 mins by LC-MS/MS analysis; format: ADME, organism-based; conditions: read-out: Drug uptake
[8] = Ratio of drug level in brain to plasma in Wistar rat at 3 mg/kg, ip measured after 15 mins by LC-MS/MS analysis; format: ADME, organism-based; conditions: read-out: BPR
[9] = Ratio of drug level in brain to plasma in Wistar rat at 3 mg/kg, ip measured after 30 mins by LC-MS/MS analysis; format: ADME, organism-based; conditions: read-out: BPR
[10] = Ratio of drug level in brain to plasma in Wistar rat at 3 mg/kg, ip measured after 60 mins by LC-MS/MS analysis; format: ADME, organism-based; conditions: read-out: BPR
[11] = Toxicity in ip dosed Sprague-Dawley rat assessed as sedation pretreated for 60 mins followed by PCP addition measured for 30 mins starting 15 min after rat reintroduction to auto-tracks; format: organism-based; conditions: in vivo
Rattus norvegicus [12] = assay: Antipsychotic activity in Sprague-Dawley rat assessed as reduction in PCP-induced hyper-locomotion at 1 to 3 mg/kg, ip pretreated for 60 mins followed by PCP addition measured for 30 mins starting 15 min after rat reintroduction to auto-tracks; format: functional, organism-based
[13] = target: 5-hydroxytryptamine receptor 6 (Homo sapiens, UniProt P50406); assay: biochemical
5-hydroxytryptamine receptor 6, sequence (P50406 whole entry): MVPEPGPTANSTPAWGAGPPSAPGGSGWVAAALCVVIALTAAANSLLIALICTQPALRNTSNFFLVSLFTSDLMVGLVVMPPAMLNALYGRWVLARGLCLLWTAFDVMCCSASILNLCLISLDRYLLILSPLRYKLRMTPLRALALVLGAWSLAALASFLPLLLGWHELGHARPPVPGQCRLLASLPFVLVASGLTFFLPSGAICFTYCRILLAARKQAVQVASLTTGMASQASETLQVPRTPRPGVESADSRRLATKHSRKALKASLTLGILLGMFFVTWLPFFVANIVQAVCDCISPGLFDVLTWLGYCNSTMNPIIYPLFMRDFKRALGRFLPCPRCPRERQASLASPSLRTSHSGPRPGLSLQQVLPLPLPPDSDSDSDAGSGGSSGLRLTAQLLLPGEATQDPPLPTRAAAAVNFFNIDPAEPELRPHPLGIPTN
Description: Displacement of [3H]-LSD from human 5-HT6R expressed in HEK293 cell membranes after 1 hr at 37 degC by microbeta counting method

[14] = target: T1, 5-hydroxytryptamine receptor 1A (Homo sapiens, UniProt P08908); assay: biochemical
T1 sequence (P08908 whole entry): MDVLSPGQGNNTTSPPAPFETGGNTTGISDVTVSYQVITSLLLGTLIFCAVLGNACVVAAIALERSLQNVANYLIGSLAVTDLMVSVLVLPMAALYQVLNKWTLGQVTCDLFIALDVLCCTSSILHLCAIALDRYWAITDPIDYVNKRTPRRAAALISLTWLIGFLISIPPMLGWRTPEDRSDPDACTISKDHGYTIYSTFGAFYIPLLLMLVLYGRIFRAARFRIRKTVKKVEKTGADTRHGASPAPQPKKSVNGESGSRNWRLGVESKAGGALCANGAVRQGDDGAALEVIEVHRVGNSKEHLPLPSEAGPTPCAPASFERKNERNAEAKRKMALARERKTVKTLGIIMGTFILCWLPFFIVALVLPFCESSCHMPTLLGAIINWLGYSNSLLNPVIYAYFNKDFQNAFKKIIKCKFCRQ
Description: Displacement of [3H]-8-OH-DPAT from human 5-HT1AR expressed in HEK293 cell membranes after 1 hr by microbeta counting method

[15] = target: 5-hydroxytryptamine receptor 7 (Homo sapiens, UniProt P34969); assay: biochemical
5-hydroxytryptamine receptor 7, sequence (P34969 whole entry): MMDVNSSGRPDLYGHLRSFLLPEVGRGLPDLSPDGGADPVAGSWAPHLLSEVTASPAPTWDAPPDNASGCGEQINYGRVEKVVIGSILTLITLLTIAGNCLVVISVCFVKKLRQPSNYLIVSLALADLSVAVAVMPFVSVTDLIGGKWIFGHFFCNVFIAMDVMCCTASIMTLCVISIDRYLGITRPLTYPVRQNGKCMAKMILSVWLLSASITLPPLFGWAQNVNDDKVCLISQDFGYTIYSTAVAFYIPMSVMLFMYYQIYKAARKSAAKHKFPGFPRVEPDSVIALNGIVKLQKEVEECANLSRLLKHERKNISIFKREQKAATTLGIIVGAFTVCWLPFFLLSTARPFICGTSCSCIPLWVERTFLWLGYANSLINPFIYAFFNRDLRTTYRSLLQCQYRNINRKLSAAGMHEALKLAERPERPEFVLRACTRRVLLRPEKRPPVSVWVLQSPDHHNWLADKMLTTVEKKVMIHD
Description: Displacement of [3H]-5-CT from human 5-HT7R expressed in HEK293 cell membranes after 1 hr at 37 degC by microbeta counting method

[16] = target: T2, 5-hydroxytryptamine receptor 1A (Homo sapiens) (UniProt P08908); conditions: CHO-K1, 10^-7 M
T2 sequence (whole entry): T1 sequence (P08908 whole entry)

Rattus norvegicus [17] = assay: Toxicity in Wistar rat assessed as increase in prolactin level at 3 mg/kg, po after 60 mins by ELISA; format: organism-based; conditions: in vivo, 1 h
[18] = Effect on failure incidence during conditioned avoidance response test in ip dosed Sprague-Dawley rat administered 60 mins prior to testing; format: ADME, organism-based; conditions: in vivo
Rattus norvegicus [19] = assay: Reversal of ketamine-induced working social withdrawal in Sprague-Dawley rat at 1 mg/kg, ip pretreated for 60 mins followed by ketamine administration; format: functional, organism-based
Rattus norvegicus [20] = assay: Toxicity in Sprague-Dawley rat assessed as induction of catalepsy at 30 mg/kg, ip measured every 30 mins up to 240 mins by bar test; format: organism-based; conditions: in vivo
Rattus norvegicus [21] = species on record: Rattus norvegicus; assay: animal or person; conditions: Sprague-Dawley, ip, read-out: MED
Description: Antipsychotic activity in ip dosed Sprague-Dawley rat assessed as reduction in PCP-induced hyper-locomotion pretreated for 60 mins followed by PCP addition measured for 30 mins starting 15 min after rat reintroduction to auto-tracks

Rattus norvegicus [22] = species on record: Rattus norvegicus; assay: animal or person; conditions: Sprague-Dawley, ip, read-out: MED; remark: listed apart in the source
Description: Reversal of PCP-induced cognitive impairment in ip dosed Sprague-Dawley rat assessed as reduction in time spent exploring novel object over familiar object pretreated for 60 mins followed by PCP addition by novel object recognition assay

Rattus norvegicus [23] = species on record: Rattus norvegicus; assay: animal or person; conditions: Sprague-Dawley, ip, read-out: MED; remark: listed apart in the source
Description: Antipsychotic activity in ip dosed Sprague-Dawley rat assessed as suppression of avoidance behavior by avoiding foot shock administered 60 mins prior to test by conditioned avoidance response test

[24] = (§1) Toxicity in ip dosed Sprague-Dawley rat assessed as induction of catalepsy measured every 30 mins up to 240 mins by bar test; format: organism-based; conditions: Sprague-Dawley, in vivo
Rattus norvegicus [25] = assay: as §1; format: organism-based; conditions: in vivo
Rattus norvegicus [26] = assay: Reversal of ketamine-induced working social withdrawal in Sprague-Dawley rat at 0.1 mg/kg, ip pretreated for 60 mins followed by ketamine administration; format: functional, organism-based
Rattus norvegicus [27] = assay: Reversal of PCP-induced cognitive impairment in Sprague-Dawley rat assessed as […] in time spent exploring novel object over familiar object at 0.05 mg/kg, ip pretreated for 60 mins followed by PCP addition by novel object recognition assay; format: functional, organism-based
[28] = target: 5-hydroxytryptamine receptor 1B (Cricetulus griseus) (UniProt P46636); assay: Antagonist activity at 5-HT1BR in CHO cells assessed as inhibition of serotonin-induced response; format: functional, cell-based
5-hydroxytryptamine receptor 1B (Cricetulus griseus), sequence (P46636 whole entry): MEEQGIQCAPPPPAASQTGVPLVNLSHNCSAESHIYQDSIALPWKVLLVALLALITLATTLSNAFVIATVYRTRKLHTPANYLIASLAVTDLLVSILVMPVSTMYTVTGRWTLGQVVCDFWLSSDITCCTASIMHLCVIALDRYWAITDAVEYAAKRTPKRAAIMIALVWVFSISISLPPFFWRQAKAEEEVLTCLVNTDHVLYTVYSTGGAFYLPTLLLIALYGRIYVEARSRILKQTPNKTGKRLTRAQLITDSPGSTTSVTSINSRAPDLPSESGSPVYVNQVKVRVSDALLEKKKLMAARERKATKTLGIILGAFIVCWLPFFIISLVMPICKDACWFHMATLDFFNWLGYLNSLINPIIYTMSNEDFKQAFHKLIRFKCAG

[29] = target: 5-hydroxytryptamine receptor 1D (Rattus norvegicus) (UniProt P28565); assay: Antagonist activity at rat 5-HT1DR expressed in CHO cells assessed as inhibition of serotonin-induced response by cellular dielectric spectroscopy; format: functional, cell-based
5-hydroxytryptamine receptor 1D (Rattus norvegicus), sequence (P28565 whole entry): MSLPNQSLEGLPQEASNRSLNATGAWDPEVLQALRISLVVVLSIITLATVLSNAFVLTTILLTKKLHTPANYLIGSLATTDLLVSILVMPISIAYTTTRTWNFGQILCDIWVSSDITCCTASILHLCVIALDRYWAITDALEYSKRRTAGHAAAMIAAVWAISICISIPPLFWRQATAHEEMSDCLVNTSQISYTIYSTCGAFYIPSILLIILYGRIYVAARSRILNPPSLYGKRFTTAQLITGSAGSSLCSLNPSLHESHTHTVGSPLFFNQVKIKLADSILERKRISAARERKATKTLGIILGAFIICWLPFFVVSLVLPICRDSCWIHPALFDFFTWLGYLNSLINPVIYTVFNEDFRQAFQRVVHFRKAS

5-hydroxytryptamine receptor 2A, sequence (P28223 whole entry): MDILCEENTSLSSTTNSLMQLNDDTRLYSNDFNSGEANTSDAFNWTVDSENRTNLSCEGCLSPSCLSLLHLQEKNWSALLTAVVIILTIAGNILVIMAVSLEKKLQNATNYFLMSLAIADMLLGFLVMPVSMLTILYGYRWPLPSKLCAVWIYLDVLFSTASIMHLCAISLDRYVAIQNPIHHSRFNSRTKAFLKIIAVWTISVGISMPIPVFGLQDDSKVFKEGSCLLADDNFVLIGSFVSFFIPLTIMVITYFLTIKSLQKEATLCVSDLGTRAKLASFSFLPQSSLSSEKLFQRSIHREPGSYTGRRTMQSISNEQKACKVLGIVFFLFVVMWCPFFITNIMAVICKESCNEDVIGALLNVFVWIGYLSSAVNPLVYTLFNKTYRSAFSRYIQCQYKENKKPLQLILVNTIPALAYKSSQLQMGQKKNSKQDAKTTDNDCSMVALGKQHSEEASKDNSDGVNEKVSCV

## O=S(=O)(c1cncc2ccccc12)N1CCC[C@@H]1CCN1CCN(c2nsc3ccccc23)CC1
[1]
  Ki: 10 nM
[2]
  concentration at 0.25 h: 472 nM
[3]
  concentration at 0.5 h: 376 nM
[4]
  concentration at 1 h: 125 nM
[5]
  concentration at 0.25 h: 218 nM
[6]
  concentration at 0.5 h: 242 nM
[7]
  concentration at 1 h: 123 nM
[8]
  Kp at 0.25 h: 0.48
[9]
  Kp at 0.5 h: 0.65
[10]
  Kp at 1 h: 1
[11]
  MTD at 0.5 h: 2 mg/kg
Rattus norvegicus [12]
  Activity: inactive
[13]
  Ki: 40 nM
[14]
  Ki: 14 nM
[15]
  Ki: 3 nM

## O=C(CCCN1CCC2(CC1)C(=O)NCN2c1ccccc1)c1ccc(F)cc1
[16]
  inhibition: 100%

## O=C1Cc2cc(CCN3CCN(c4nsc5ccccc45)CC3)c(Cl)cc2N1 [ZIPRASIDONE]
Rattus norvegicus [17]
  Activity: Toxic
[11]
  MTD at 0.5 h: 3 mg/kg
[18]
  MTD at 1 h: 2 mg/kg
Rattus norvegicus [19]
  Activity: inactive
Rattus norvegicus [20]
  Activity: Non-Toxic
[13]
  Ki: 20 nM
[14]
  Ki: 2 nM
Rattus norvegicus [21]
  minimal effective dose: 1 mg/kg
Rattus norvegicus [22]
  minimal effective dose: 1 mg/kg
Rattus norvegicus [23]
  minimal effective dose: 1 mg/kg

## O=C(CCCN1CCC(O)(c2ccc(Cl)cc2)CC1)c1ccc(F)cc1 [HALOPERIDOL]
[11]
  MTD at 0.5 h: 0.06 mg/kg
[24]
  MTD: 0.2 mg/kg
Rattus norvegicus [25]
  Activity: Dose-dependent effect
[18]
  MTD at 1 h: 0.2 mg/kg
Rattus norvegicus [26]
  Activity: inactive
Rattus norvegicus [27]
  Activity: inactive
Rattus norvegicus [21]
  minimal effective dose: 0.6 mg/kg
Rattus norvegicus [23]
  minimal effective dose: 0.1 mg/kg

## O=S(=O)(c1cccc2cnccc12)N1CCC[C@@H]1CCN1CCN(c2nsc3ccccc23)CC1
[1]
  Ki: 15 nM
[2]
  concentration at 0.25 h: 450 nM
[3]
  concentration at 0.5 h: 389 nM
[4]
  concentration at 1 h: 79.2 nM
[5]
  concentration at 0.25 h: 114 nM
[6]
  concentration at 0.5 h: 81.9 nM
[7]
  concentration at 1 h: 35.5 nM
[8]
  Kp at 0.25 h: 0.28
[9]
  Kp at 0.5 h: 0.21
[10]
  Kp at 1 h: 0.45
[13]
  Ki: 40 nM
[14]
  Ki: 16 nM
[15]
  Ki: 1 nM

## COc1ccc(NC(=O)c2ccc(-c3ccc(-c4noc(C)n4)cc3C)cc2)cc1N1CCN(C)CC1
[28]
  Kb: 0.065 nM

## CSc1ccc2c(c1)C(N1CCN(C)CC1)Cc1ccccc1S2 (centres undefined)
[29]
  Kb: 14 nM
